Data published in ChEMBL document CHEMBL1201862, “PubChem BioAssay data set” (2004).
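Dose response: 5 concentrations. Exposure: 48 h. Format: 96-well plates. Endpoint: linear interpolation; highest concentration if not reached. Abbreviation: GI50, concentration required for 50% inhibition of growth.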 The source made the active and inactive calls. No stated cut-off is given here; in the data, active = GI50 up to about 1.1 µM and inactive = higher.

Experiments:
Assay in all cases: NCI-60 cell line screen, 48 h
[1] = system: A549
[2] = system: ACHN
[3] = system: DU-145
[4] = system: EKVX
[5] = system: HCT-15
[6] = system: HT-29
[7] = system: KM12
[8] = system: M14
[9] = system: MDA-N
[10] = system: Malme-3M
[11] = system: NCI-H226
[12] = system: NCI-H460
[13] = system: NCI-H522
[14] = system: RPMI-8226
[15] = system: SF-539
[16] = system: SK-MEL-2
[17] = system: SK-OV-3
[18] = system: SNB-75
[19] = system: U-251
[20] = system: UACC-257

Row | Structure (SMILES) | GI50 [1] | GI50 [2] | GI50 [3] | GI50 [4] | GI50 [5] [µM] | GI50 [6] | GI50 [7] | GI50 [8] | GI50 [9] | GI50 [10] | GI50 [11] | GI50 [12] | GI50 [13] | GI50 [14] | GI50 [15] | GI50 [16] | GI50 [17] | GI50 [18] | GI50 [19] | GI50 [20]
1 | CCOC(=O)C1(C(C)=O)OC(=O)c2cnccc21 (stereo not given) | > 100 µM (inactive) | > 100 µM (inactive) | > 100 µM (inactive) | > 100 µM (inactive) | > 100 | > 100 µM (inactive) | > 100 µM (inactive) | > 100 µM (inactive) | > 100 µM (inactive) | > 100 µM (inactive) | > 100 µM (inactive) | > 100 µM (inactive) | > 100 µM (inactive) | > 100 µM (inactive) | > 100 µM (inactive) | > 100 µM (inactive) | > 100 µM (inactive) | > 100 µM (inactive) | > 100 µM (inactive) | > 100 µM (inactive)
2 | CC(=O)NC(CCC(=O)C=[N+]=[N-])C(=O)O (stereo not given) | > 100 µM (inactive) | > 100 µM (inactive) | > 100 µM (inactive) | > 100 µM (inactive) | > 100 | > 100 µM (inactive) | > 100 µM (inactive) | > 100 µM (inactive) | > 100 µM (inactive) | > 100 µM (inactive) | > 100 µM (inactive) | > 100 µM (inactive) | > 100 µM (inactive) | > 100 µM (inactive) | > 100 µM (inactive) | > 100 µM (inactive) | > 100 µM (inactive) | > 100 µM (inactive) | > 100 µM (inactive) | > 100 µM (inactive)
